Columns and labels:
[1] = molecular target: Phosphatidylinositol 4,5-bisphosphate 3-kinase catalytic subunit alpha isoform (Homo sapiens, UniProt P42336); experiment: Inhibition of PI3K-alpha (unknown origin) by mobility shift assay
[2] = Metabolic stability in rat S9 fraction assessed as compound remaining measured at 60 mins; assay type: ADME; conditions: read-out: Stability
[3] = Clearance in rat at 2 mg/kg, iv; assay type: ADME, organism-based; conditions: in vivo
[4] = Cmax in rat at 5 mg/kg, po; assay type: ADME, organism-based; design: dose 5 mg/kg, route oral; conditions: in vivo
[5] = AUC (0 to infinity) in rat at 5 mg/kg, po; assay type: ADME, organism-based; design: dose 5 mg/kg, time infinity, route oral; conditions: in vivo
[6] = Oral bioavailability in rat at 5 mg/kg; assay type: ADME, organism-based; conditions: in vivo
[7] = system: PC-3; experiment: Antitumor activity against human PC3 cells xenografted in mouse assessed as tumor volume reduction at 25 mg/kg, po qd for 21 days relative to control; assay type: functional; design: scale not given: the % may be the effect or the level left
[8] = molecular target: Vascular endothelial growth factor receptor 3 (Homo sapiens, UniProt P35916); experiment: Inhibition of Flt4 (unknown origin)
[9] = Inhibition of CYP450 (unknown origin) up to 10 uM; assay type: ADME; conditions: human
[10] = system: Salmonella typhi; experiment: Mutagenicity in Salmonella typhi by Ames test; assay type: toxicity, organism-based; conditions: salmonella enterica subsp. enterica serovar […]
[11] = Genotoxicity in mouse erythrocytes by micronucleus test; assay type: toxicity, cell-based; conditions: erythrocyte
[12] = system: PC-3; conditions: Homo sapiens
[13] = system: PC-3; conditions: Homo sapiens, TDE = time-dependent effect
[14] = species: Mus musculus; experiment: animal or person; conditions: PC-3, po, 4 h, read-out: INH
[15] = species: Mus musculus; experiment: animal or person; conditions: PC-3, po, 8 h, read-out: INH
[16] = species: Mus musculus; experiment: animal or person; conditions: PC-3, po, 24 h, read-out: INH
[17] = species: Mus musculus; experiment: animal or person; conditions: PC-3, po, 4 h, read-out: INH; remark: listed apart in the source
[18] = species: Mus musculus; experiment: animal or person; conditions: PC-3, po, 8 h, read-out: INH; remark: listed apart in the source
[19] = species: Mus musculus; experiment: animal or person; conditions: PC-3, po, 24 h, read-out: INH; remark: listed apart in the source
[20] = cells; conditions: Homo sapiens, PC-3, 1 h
[21] = species: Mus musculus; experiment: animal or person; conditions: PC-3, po, 2 h, read-out: INH
[22] = species: Mus musculus; experiment: animal or person; conditions: PC-3, po, 2 h, read-out: INH; remark: listed apart in the source
[23] = Tmax in rat at 5 mg/kg, po; assay type: ADME, organism-based; conditions: in vivo
[24] = system: PC-3; experiment: Antitumor activity against human PC3 cells xenografted in mouse assessed as tumor volume reduction at 100 mg/kg, po bid with 10 hrs separation between morning and evening doses for 21 days relative to control; assay type: functional; design: scale not given: the % may be the effect or the level left
[25] = system: PC-3; conditions: Homo sapiens; remark: listed apart in the source
[26] = system: PC-3; conditions: Homo sapiens, TDE = time-dependent effect; remark: listed apart in the source
[27] = Cmax in rat at 10 mg/kg, po; assay type: ADME, organism-based; design: dose 10 mg/kg, route oral; conditions: in vivo
[28] = system: PC-3; experiment: Antitumor activity against human PC3 cells xenografted in mouse assessed as tumor volume reduction at 50 mg/kg, po qd for 21 days relative to control; assay type: functional; design: scale not given: the % may be the effect or the level left
[29] = system: PC-3; conditions: Homo sapiens, TDE = time-dependent effect; remark: listed apart in the source
[30] = molecular target: Serine/threonine-protein kinase mTOR (Homo sapiens, UniProt P42345); experiment: Inhibition of recombinant mTOR (unknown origin) using GST-p70S6 as substrate after 60 mins by TR-FRET analysis
[31] = Inhibition of mTORC2 in human PC3 cells assessed as inhibition of AKT phosphorylation at S473 by sandwich immunoassay; assay type: cell-based; conditions: PC-3
[32] = system: PC-3; experiment: Cytotoxicity against human PC3 cells assessed as inhibition of cell proliferation after 3 days by WST1 assay; assay type: functional, cell-based; conditions: PC-3, 72 h
[33] = Tmax in rat at 10 mg/kg, po; assay type: ADME, organism-based; conditions: in vivo
[34] = AUC (0 to infinity) in rat at 10 mg/kg, po; assay type: ADME, organism-based; design: dose 10 mg/kg, route oral, time infinity; conditions: in vivo
[35] = Oral bioavailability in rat at 10 mg/kg; assay type: ADME, organism-based; conditions: in vivo

Sequence of Phosphatidylinositol 4,5-bisphosphate 3-kinase catalytic subunit alpha isoform (P42336 whole entry, canonical isoform): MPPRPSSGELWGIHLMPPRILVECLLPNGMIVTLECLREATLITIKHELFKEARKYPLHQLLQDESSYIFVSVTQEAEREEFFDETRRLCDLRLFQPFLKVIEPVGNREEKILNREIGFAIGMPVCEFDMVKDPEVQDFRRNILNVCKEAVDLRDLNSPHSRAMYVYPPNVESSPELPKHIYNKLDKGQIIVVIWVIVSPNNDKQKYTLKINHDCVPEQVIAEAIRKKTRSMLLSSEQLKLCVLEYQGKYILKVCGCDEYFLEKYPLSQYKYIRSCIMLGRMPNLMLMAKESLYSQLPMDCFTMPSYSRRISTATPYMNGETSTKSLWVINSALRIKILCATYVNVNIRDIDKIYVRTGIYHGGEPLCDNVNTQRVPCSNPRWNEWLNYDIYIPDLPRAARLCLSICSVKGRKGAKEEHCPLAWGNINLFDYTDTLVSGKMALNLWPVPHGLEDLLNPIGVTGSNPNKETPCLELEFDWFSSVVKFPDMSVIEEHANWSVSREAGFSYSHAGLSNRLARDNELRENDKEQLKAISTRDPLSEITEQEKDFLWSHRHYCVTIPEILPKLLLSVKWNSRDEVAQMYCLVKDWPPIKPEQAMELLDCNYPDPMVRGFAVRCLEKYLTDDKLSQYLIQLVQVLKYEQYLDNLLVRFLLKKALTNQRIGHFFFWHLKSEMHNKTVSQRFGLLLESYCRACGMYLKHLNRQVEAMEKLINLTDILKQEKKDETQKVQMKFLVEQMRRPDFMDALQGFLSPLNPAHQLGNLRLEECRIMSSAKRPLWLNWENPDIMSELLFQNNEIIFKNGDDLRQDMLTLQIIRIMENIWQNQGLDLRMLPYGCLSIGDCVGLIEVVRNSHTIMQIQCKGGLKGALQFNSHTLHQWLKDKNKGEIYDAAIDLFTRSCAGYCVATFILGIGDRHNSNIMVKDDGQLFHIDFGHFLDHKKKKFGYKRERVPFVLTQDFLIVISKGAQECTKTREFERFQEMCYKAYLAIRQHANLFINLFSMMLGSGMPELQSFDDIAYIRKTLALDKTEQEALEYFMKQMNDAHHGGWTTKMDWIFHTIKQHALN
Sequence of Vascular endothelial growth factor receptor 3 (P35916 whole entry): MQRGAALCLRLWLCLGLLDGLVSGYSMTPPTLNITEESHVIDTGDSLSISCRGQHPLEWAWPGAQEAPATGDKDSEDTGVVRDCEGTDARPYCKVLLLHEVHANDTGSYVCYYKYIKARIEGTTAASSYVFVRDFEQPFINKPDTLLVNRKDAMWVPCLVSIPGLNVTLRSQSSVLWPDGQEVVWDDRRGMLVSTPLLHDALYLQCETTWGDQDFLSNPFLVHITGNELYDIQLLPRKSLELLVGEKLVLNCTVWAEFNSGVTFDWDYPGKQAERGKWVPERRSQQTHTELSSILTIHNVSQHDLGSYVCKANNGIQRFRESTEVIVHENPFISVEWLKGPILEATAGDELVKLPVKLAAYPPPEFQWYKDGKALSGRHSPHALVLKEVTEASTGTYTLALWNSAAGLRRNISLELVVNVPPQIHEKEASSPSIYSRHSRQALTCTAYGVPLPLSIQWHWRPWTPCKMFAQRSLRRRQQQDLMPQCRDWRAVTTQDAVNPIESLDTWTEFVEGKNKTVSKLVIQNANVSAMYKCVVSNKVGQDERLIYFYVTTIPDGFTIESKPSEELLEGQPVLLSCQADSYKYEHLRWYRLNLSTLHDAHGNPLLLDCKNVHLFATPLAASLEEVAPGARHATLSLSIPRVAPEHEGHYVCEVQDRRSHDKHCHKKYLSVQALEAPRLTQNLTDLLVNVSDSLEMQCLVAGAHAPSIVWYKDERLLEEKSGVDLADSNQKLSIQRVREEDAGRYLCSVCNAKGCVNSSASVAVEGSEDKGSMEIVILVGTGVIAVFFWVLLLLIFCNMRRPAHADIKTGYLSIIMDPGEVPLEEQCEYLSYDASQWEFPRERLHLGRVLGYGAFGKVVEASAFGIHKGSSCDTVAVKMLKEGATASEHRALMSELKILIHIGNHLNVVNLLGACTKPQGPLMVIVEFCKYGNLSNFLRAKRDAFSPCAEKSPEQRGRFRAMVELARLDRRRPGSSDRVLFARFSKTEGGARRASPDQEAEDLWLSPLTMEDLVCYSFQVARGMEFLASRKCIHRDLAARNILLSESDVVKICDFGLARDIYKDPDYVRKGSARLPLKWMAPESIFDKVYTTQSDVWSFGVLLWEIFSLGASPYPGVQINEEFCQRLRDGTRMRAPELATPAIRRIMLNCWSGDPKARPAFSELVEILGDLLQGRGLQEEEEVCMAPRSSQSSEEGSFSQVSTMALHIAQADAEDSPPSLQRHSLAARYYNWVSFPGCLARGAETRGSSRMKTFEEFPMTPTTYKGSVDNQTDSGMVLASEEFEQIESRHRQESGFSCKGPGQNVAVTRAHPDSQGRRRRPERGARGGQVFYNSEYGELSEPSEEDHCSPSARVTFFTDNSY

Compound	IC50 [1] [µM]	remaining at 1 h [2] [%]	Cmax [4] [nM]	AUC(0-inf) [5] [µM·h]	inhibition in vivo at 100 mg/kg [14] [%]	inhibition in vivo at 100 mg/kg [15] [%]	inhibition in vivo at 100 mg/kg [16] [%]	inhibition in vivo at 100 mg/kg [17] [%]	inhibition in vivo at 100 mg/kg [18] [%]	inhibition in vivo at 100 mg/kg [19] [%]	IC50 [20] [µM]	also measured
CC(C)(O)c1ccc(-c2cnc3c(n2)N(CC2CCCCC2)CC(=O)N3)cn1	17.7	16	–	–	–	–	–	–	–	–	–	–
CC(C)(O)c1ccc(-c2cnc3c(n2)N(C2CCOCC2)C(=O)CN3)cn1	3.2	–	–	–	–	–	–	–	–	–	–	–
CC(C)(O)c1ccc(-c2cnc3c(n2)N([C@H]2CC[C@@H](O)CC2)C(=O)CN3)cn1	2.8	–	–	–	–	–	–	–	–	–	–	–
O=C1CN(CCC2CCOCC2)c2nc(-c3ccc(-c4nc[nH]n4)nc3)cnc2N1	1.6	–	–	–	–	–	–	–	–	–	–	–
CC(C)(O)c1ccc(-c2cnc3c(n2)N(C2CCOCC2)CC(=O)N3)cn1	4.7	–	–	–	–	–	–	–	–	–	–	–
CO[C@H]1CC[C@H](N2C(=O)CNc3ncc(-c4ccc(C(C)(C)O)nc4)nc32)CC1 [ONATASERTIB]	–	–	2900	26	91	92	91	80	82	86	–	clearance [3]: 4.9 mL/min/kg; bioavailability [6]: 59%; Activity [7]: 87%; IC50 [8]: 0.651 µM; inhibition (INH) [9]: Not Active; Activity [10]: Non-toxic; Activity [11]: Non-toxic; TGI [12]: Dose-dependent effect; TGI [13]: tde
CO[C@H]1CC[C@@H](N2CC(=O)Nc3ncc(-c4ccc(C(C)(C)O)nc4)nc32)CC1	11.1	–	2770	26.6	54	52	70	34	59	45	0.33	inhibition in vivo at 100 mg/kg [21]: 80%; inhibition in vivo at 100 mg/kg [22]: 72%
CC(C)(O)c1ccc(-c2cnc3c(n2)N(CCC2CCOCC2)CC(=O)N3)cn1	–	95	1500	11	63	64	0	63	67	28	0.11	clearance [3]: 23 mL/min/kg; Tmax [23]: 90 min; bioavailability [6]: 100%; Activity [24]: 72%; TGI [25]: Dose-dependent effect; TGI [26]: tde; inhibition in vivo at 100 mg/kg [21]: 87%; inhibition in vivo at 100 mg/kg [22]: 74%
Cc1cc(-c2nc[nH]n2)ccc1-c1cnc2c(n1)N(CCC1CCOCC1)CC(=O)N2	0.2	–	–	–	–	–	–	–	–	–	–	–
CC(C)(O)c1ccc(-c2cnc3c(n2)N([C@H]2CC[C@H](O)CC2)C(=O)CN3)cn1	1.9	–	2200	9.23	–	–	–	–	–	–	–	–
COCCN1C(=O)CNc2ncc(-c3ccc(C(C)(C)O)nc3)nc21	6.2	89	5600	29	82	91	91	87	84	77	0.61	–
O=C1CN(CCC2CCOCC2)c2nc(-c3ccc(-c4nc[nH]n4)cc3)cnc2N1	–	61	–	–	–	–	–	–	–	–	–	Cmax [27]: < 2.13 nM; clearance [3]: 13.8 mL/min/kg
CC(C)(O)c1ccc(-c2cnc3c(n2)N(CC2CCOCC2)CC(=O)N3)cn1	> 30	100	–	–	86	88	83	73	71	65	0.32	Activity [28]: 84%; TGI [12]: Dose-dependent effect; TGI [29]: tde; inhibition in vivo at 100 mg/kg [21]: 88%; inhibition in vivo at 100 mg/kg [22]: 85%
Cc1cc(-c2nc[nH]n2)ccc1-c1cnc2c(n1)N(CCC1CCOCC1)C(=O)CN2	0.12	–	–	–	–	–	–	–	–	–	–	–
CO[C@H]1CC[C@H](CN2C(=O)CNc3ncc(-c4ccc(C(C)(C)O)nc4)nc32)CC1	4.7	55	–	–	–	–	–	–	–	–	–	–
CO[C@H]1CC[C@H](CN2CC(=O)Nc3ncc(-c4ccc(C(C)(C)O)nc4)nc32)CC1	20.2	77	700	7.25	80	64	0	55	55	0	0.16	–
CC(C)(O)c1ccc(-c2cnc3[nH]c(=O)n(CCC4CCOCC4)c3n2)cn1	> 30	91	1800	4.8	–	–	–	–	–	–	–	IC50 [30]: 0.064 µM; IC50 [31]: 0.638 µM; IC50 [32]: 2.36 µM; clearance [3]: 15 mL/min/kg; Tmax [23]: 30 min; bioavailability [6]: 43%
CC(C)(O)c1ccc(-c2cnc3c(n2)N(CCC2CCOCC2)C(=O)CN3)cn1	–	73	1700	14	80	88	59	63	78	69	0.09	clearance [3]: 9 mL/min/kg; Tmax [23]: 36 min; bioavailability [6]: 58%; Activity [28]: 59%; TGI [12]: Dose-dependent effect; TGI [29]: tde; inhibition in vivo at 100 mg/kg [21]: 71%; inhibition in vivo at 100 mg/kg [22]: 82%
CO[C@H]1CC[C@@H](CN2C(=O)CNc3ncc(-c4ccc(C(C)(C)O)nc4)nc32)CC1	2.5	–	–	–	–	–	–	–	–	–	–	–
CC(C)(O)c1ccc(-c2cnc3c(n2)N(CC2CCOCC2)C(=O)CN3)cn1	3.8	83	1600	9.9	93	94	91	86	81	80	0.13	–
O=C1CNc2ncc(-c3ccc(-c4ncn[nH]4)cc3)nc2N1CCC1CCOCC1	0.1	48	–	–	–	–	–	–	–	–	–	–
COCCN1CC(=O)Nc2ncc(-c3ccc(C(C)(C)O)nc3)nc21	10.5	–	–	–	–	–	–	–	–	–	–	–
O=c1[nH]c2ncc(-c3ccc(-c4nc[nH]n4)cc3)nc2n1CCC1CCOCC1	–	93	–	–	–	–	–	–	–	–	–	Cmax [27]: 24 nM; Tmax [33]: 60 min; AUC(0-inf) [34]: 0.11 µM·h; bioavailability [35]: 0.85%; clearance [3]: 32 mL/min/kg
CO[C@H]1CC[C@@H](CN2CC(=O)Nc3ncc(-c4ccc(C(C)(C)O)nc4)nc32)CC1	7.6	39	–	–	–	–	–	–	–	–	–	–
CO[C@H]1CC[C@H](N2CC(=O)Nc3ncc(-c4ccc(C(C)(C)O)nc4)nc32)CC1	16.4	94	6300	90	90	85	85	62	69	61	0.35	clearance [3]: 1.7 mL/min/kg; bioavailability [6]: 70%; Activity [28]: 90%; TGI [12]: Dose-dependent effect; TGI [29]: tde; inhibition in vivo at 100 mg/kg [21]: 87%; inhibition in vivo at 100 mg/kg [22]: 75%

From ChEMBL document CHEMBL3585315, “Discovery of mammalian target of rapamycin (mTOR) kinase inhibitor CC-223” (J Med Chem, 2015)
